We go through 17 compounds from patent US20210238170A1, “5,5-Difluoro- and 5-Fluoro-5-Methyl-C-Glycoside Derivatives Useful As Dual SGLT1 / SGLT2 Modulators” (Janssen Pharmaceutica NV, priority 2018, published 2021).

One assay concerns the target T1, human SGLT1 (Homo sapiens, UniProt P13866).
T1 construct: expressed in transfected cells
T1 sequence (P13866 1-664): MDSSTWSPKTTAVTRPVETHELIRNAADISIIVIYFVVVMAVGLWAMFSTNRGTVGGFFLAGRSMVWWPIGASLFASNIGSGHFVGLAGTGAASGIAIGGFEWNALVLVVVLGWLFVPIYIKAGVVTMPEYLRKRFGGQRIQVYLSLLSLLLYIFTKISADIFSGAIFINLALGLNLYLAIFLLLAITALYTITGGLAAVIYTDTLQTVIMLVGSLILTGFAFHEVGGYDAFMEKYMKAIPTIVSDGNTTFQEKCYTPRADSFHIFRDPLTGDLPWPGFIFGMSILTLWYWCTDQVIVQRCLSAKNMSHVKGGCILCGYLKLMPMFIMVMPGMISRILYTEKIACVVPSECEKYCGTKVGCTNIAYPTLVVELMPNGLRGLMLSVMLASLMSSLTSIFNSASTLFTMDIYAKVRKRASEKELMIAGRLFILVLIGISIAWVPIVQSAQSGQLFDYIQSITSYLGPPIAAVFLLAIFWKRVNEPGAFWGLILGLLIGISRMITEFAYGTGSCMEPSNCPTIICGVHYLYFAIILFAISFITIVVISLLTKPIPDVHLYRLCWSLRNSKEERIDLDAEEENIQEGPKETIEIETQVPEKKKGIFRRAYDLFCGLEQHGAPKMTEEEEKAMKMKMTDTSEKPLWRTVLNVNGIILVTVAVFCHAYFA
Briefly: SGLT1 in vitro assay: Na-dependent 14C-AMG uptake in CHO-K1 cells stably expressing human SGLT1. Type of assay: cell-based. The following applies: CHO-K1 cells stably expressing human SGLT1, 14C-AMG uptake; for IC50: compounds of formula (I) where R0 is fluoro; for inhibition at 0.3 µM: read-out: SGLT1 % Inh @ 0.3 μM. The method, then: (§1) Biological Example 1: SGLT1 and SGLT2 In Vitro Assays
(§2) The ability of the compounds of formula (I) of the present invention to treat an SGLT-mediated condition was determined using the following procedures:
(§3) SGLT1 and SGLT2 were cloned in form of cDNA from human small intestine (Genbank M24847), and from human kidney (Genbank M95549), respectively. Subsequently, each full cDNA was subcloned into pcDNA with each construct's integrity verified through follow-on sequencing. To generate CHO-K1 cells that stably express human SGLT1 or human SGLT2, CHO-K1 cells were transfected using DMRIE-C reagent (Life Technologies, Gaithersburg, Md.). Transfected cells were then selected in the presence of 500 μg/ml of the Geneticin (G418 Cellgro Catalog No. 30234-CI)
(§4) Individual clones were then characterized using the following cell-based assay for sodium-dependent glucose transport:
(§5) Inhibition of SGLT1 and SGLT2 activity was assessed in CHO K1 cells stably expressing either human SGLT1 or SGLT2, using the SGLT specific glucose analog methyl-glucopyranoside (Sigma Catalog No. M-9376). Cells were plated (45,000 cells/well) in white wall 96-well plates (COSTAR, Cat #3903) for 24 hours in growth medium, then a final concentration of 10 mM Na-Butyrate (ALDRICH Cat #30341-0) was added. The cells were incubated for 24 hours. On the day of the assay, cells were rinsed and treated with test compounds (at concentrations of 0.001 μM to 10 μM) in assay buffer (50 mM HEPES, 20 mM Tris base, 5 mM KCl, 1 mM MgCl2, 1 mM CaCl2 and 137 mM NaCl, pH 7.4) for 10 minutes. Cells were then incubated with ^14C-a-methyl-d-glucopyranoside (AMG, Amersham Catalog No. CFB 76), using 0.07 μCi per well in 500 µM AMG final concentration. The cells were incubated for 2 hours at 37° C. with 5% CO2 and washed two times with ice-cold Phosphate Buffer Solution (CELLGRO Catalog No. 21030-CV). The cells were then solubilized by adding 60 μl of MICROSCINT™ 20 and the Na-dependent ^14C-AMG uptake was quantified by measuring radioactivity. Plates were counted in a TopCount (Packard, Meriden, Conn.)
(§6) Representative compounds of the present invention were tested according to the procedures as described in Biological Example 1 and 2 above, with results as listed in Table 5, below. Results are reported as the %-inhibition or IC50 value. Variability for the functional assay was typically within 20%.

For another assay, the target named is T2, human SGLT2 (Homo sapiens, UniProt P31639).
T2 construct: expressed in transfected cells
T2 sequence (P31639 1-672): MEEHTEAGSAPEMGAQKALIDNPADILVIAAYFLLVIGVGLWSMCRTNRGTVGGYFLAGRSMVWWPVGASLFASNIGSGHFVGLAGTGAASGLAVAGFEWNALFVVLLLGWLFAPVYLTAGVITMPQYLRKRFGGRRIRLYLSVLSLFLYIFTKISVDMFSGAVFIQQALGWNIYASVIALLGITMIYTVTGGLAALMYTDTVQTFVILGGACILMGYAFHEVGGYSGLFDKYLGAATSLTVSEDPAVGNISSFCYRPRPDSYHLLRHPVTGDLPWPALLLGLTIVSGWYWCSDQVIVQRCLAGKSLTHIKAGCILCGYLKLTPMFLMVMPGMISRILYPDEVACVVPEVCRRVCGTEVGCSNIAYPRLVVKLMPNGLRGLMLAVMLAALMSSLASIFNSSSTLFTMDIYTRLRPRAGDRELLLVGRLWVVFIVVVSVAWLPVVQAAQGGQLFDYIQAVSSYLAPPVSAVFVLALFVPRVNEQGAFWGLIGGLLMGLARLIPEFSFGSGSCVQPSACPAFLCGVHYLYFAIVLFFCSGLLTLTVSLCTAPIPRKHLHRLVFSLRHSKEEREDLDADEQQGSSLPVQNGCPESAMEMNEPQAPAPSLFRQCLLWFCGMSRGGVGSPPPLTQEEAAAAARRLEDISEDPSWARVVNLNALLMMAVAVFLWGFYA
Briefly: SGLT2 in vitro assay: Na-dependent 14C-AMG uptake in CHO-K1 cells stably expressing human SGLT2. The class given is cell-based. The settings on record: CHO-K1 cells stably expressing human SGLT2, 14C-AMG uptake; for IC50: compounds of formula (I) where R0 is fluoro; for inhibition at 0.3 µM: read-out: SGLT2 % Inh @ 0.3 μM. The procedure:
as §1, §2, §3, §4, §5, §6

Consider `OC[C@H]1O[C@@H](c2cc(Cc3ccc(OCF)cc3)c(Cl)cc2O)[C@H](O)[C@@H](O)C1(F)F` [Compound 125], for which the “SGLT1 % Inh @ 0.3 μM” value at human SGLT1 is given as 32.9%. Moreover, the “SGLT2 % Inh @ 0.3 μM” value on human SGLT2 stood at 90.2%.

Consider `COC(=O)N1CCc2sc(Cc3cc([C@@H]4O[C@H](CO)C(F)(F)[C@H](O)[C@H]4O)c(OC)cc3Cl)cc2C1` [Compound 65], for which the “SGLT1 % Inh @ 0.3 μM” value on human SGLT1 is on record as 16.9%. Further, the “SGLT2 % Inh @ 0.3 μM” value on human SGLT2 is 56.1%.

On to `CCc1cc(O)c([C@@H]2O[C@H](CO)C(F)(F)[C@H](O)[C@H]2O)cc1Cc1cc2ccccc2s1` [Compound 26, (2S,3R,4R,6R)-2-[5-(benzothiophen-2-ylmethyl)-4-ethyl-2-hydroxy-phenyl]-5,5-difluoro-6-(hydroxymethyl)tetrahydropyran-3,4-diol], for which the IC50 (in general, the point on the concentration scale where inhibition reaches its midpoint) at human SGLT1 was 44 nM; at human SGLT2 it was 32.9 nM.

Take `CCc1cc(OC)c([C@@H]2O[C@H](CO)C(F)(F)[C@H](O)[C@H]2O)cc1Cc1ccc(OC)cc1` [Compound 89, (2S,3R,4R,6R)-2-[4-ethyl-2-methoxy-5-[(4-methoxyphenyl)methyl]phenyl]-5,5-difluoro-6-(hydroxymethyl)tetrahydropyran-3,4-diol]: on human SGLT1, the inhibition at 0.3 µM turned out to be 48.1% and the half-maximal inhibitory concentration (IC50) turned out to be 636 nM. Also, at human SGLT2, the inhibition at 0.3 µM is 87.7% and the midpoint of inhibition, the IC50, lay at 4.7 nM.

For the compound `COc1cc(C)c(Cc2cc3c(s2)CCN(C(=O)N2CCCC2)C3)cc1[C@@H]1O[C@H](CO)C(F)(F)[C@H](O)[C@H]1O` [Compound 78], the “SGLT1 % Inh @ 0.3 μM” value at human SGLT1 came out at 28.0%. For the same compound, at human SGLT2, the “SGLT2 % Inh @ 0.3 μM” value was 71.5%.

For the compound `COC(=O)N1CCc2sc(Cc3cc([C@@H]4O[C@H](CO)C(F)(F)[C@H](O)[C@H]4O)c(O)cc3Cl)cc2C1` [Compound 64], the “SGLT1 % Inh @ 0.3 μM” value on human SGLT1 was determined as 6.2%. Also, at human SGLT2, the “SGLT2 % Inh @ 0.3 μM” value is on record as 67.1%.

Turning to `COc1cc(C)c(Cc2ccc(C3CC3)cc2)cc1[C@@H]1O[C@H](CO)C(F)(F)[C@H](O)[C@H]1O` [Compound 123], the “SGLT1 % Inh @ 0.3 μM” value on human SGLT1 stood at 30.6%. Besides, on human SGLT2, the “SGLT2 % Inh @ 0.3 μM” value was 89.3%.

For the compound `OC[C@H]1O[C@@H](c2cc3c(c(Cc4ccc(C5CC5)cc4)c2)OCC3)[C@H](O)[C@@H](O)C1(F)F` [Compound 174], the “SGLT1 % Inh @ 0.3 μM” value at human SGLT1 came to 38.0%. Besides, the “SGLT2 % Inh @ 0.3 μM” value at human SGLT2 is recorded as 82.9%.

For `OC[C@H]1O[C@@H](c2cc(Cc3ccc(Cl)cc3)c(Cl)cc2O)[C@H](O)[C@@H](O)C1(F)F` [Compound 163, (2S,3R,4R,6R)-2-(4-chloro-5-(4-chlorobenzyl)-2-hydroxyphenyl)-5,5-difluoro-6-(hydroxymethyl)-tetrahydro-2H-pyran-3,4-diol], on human SGLT1, the inhibition at 0.3 µM turned out to be 73.1% and the half-maximal inhibitory concentration (IC50) was 25 nM. Besides, at human SGLT2, the inhibition at 0.3 µM came to 64.4% and the IC50 is 1.2 nM.

Turning to `CCc1cc(O)c([C@@H]2O[C@H](CO)C(F)(F)[C@H](O)[C@H]2O)cc1Cc1ccc(OC(F)(F)F)cc1` [Compound 104], the “SGLT1 % Inh @ 0.3 μM” value on human SGLT1 turned out to be 39.2%. Besides, the “SGLT2 % Inh @ 0.3 μM” value on human SGLT2 came to 82.6%.

`Cc1ccc(Cc2cc([C@@H]3O[C@H](CO)C(F)(F)[C@H](O)[C@H]3O)c(O)cc2Cl)cc1` [Compound 171, (2S,3R,4R,6R)-2-(4-chloro-2-hydroxy-5-(4-methylbenzyl)phenyl)-5,5-difluoro-6-(hydroxymethyl)-tetrahydro-2H-pyran-3,4-diol]: on human SGLT1, the inhibition at 0.3 µM was found to be 86.4% and the midpoint of inhibition, the IC50, lay at 12 nM. In addition, at human SGLT2, the inhibition at 0.3 µM is 82.4% and the IC50 is 0.5 nM.

With `COc1cc(O)c([C@@H]2O[C@H](CO)C(F)(F)[C@H](O)[C@H]2O)cc1Cc1ccc2c(c1)CCO2` [Compound 62, (2S,3R,4R,6R)-2-[5-(2,3-dihydrobenzofuran-5-ylmethyl)-2-hydroxy-4-methoxy-phenyl]-5,5-difluoro-6-(hydroxymethyl)tetrahydropyran-3,4-diol], on human SGLT1, the inhibition at 0.3 µM worked out at 40.9% and the half-inhibitory concentration (IC50) turned out to be 708 nM. Besides, on human SGLT2, the inhibition at 0.3 µM was 79.6% and 17.3 nM corresponded to half-maximal inhibition (IC50).

As for `[2H]C([2H])(c1ccc2c(c1)OCCO2)c1cc([C@@H]2O[C@H](CO)C(F)(F)[C@H](O)[C@H]2O)ccc1CC` [Compound 192], the inhibition at 0.3 µM on human SGLT1 came to 49.9%; at human SGLT2, 85.7%. The values for the half-maximal inhibitory concentration (IC50) against human SGLT1 and against human SGLT2 were 779 nM and 108 nM, respectively.

Regarding `CCc1ccc(Cc2cc(C3OC(CO)C(F)(F)C(O)C3O)cc3c2OCC3CO)cc1` (mixture of isomers) [Compound 61], the “SGLT1 % Inh @ 0.3 μM” value on human SGLT1 is recorded as 32.2%. Also, the “SGLT2 % Inh @ 0.3 μM” value at human SGLT2 was 58.0%.

`COc1cc(Cl)c(Cc2ccc(Cl)cc2)cc1[C@@H]1O[C@H](CO)C(F)(F)[C@H](O)[C@H]1O` [Compound 168]: at human SGLT1, the inhibition at 0.3 µM was 43.2% and it took 175 nM to reach half-maximal inhibition (IC50). Also, at human SGLT2, the inhibition at 0.3 µM was determined as 77.6% and the IC50 came out at 0.9 nM.

Take `COc1cc(O)c([C@@H]2O[C@H](CO)C(F)(F)[C@H](O)[C@H]2O)cc1Cc1ccc2c(c1)OCCO2` [Compound 54, (2S,3R,4R,6R)-2-[5-(2,3-dihydro-1,4-benzodioxin-6-ylmethyl)-2-hydroxy-4-methoxy-phenyl]-5,5-difluoro-6-(hydroxymethyl)tetrahydropyran-3,4-diol]: at human SGLT1, the inhibition at 0.3 µM was determined as 41.8% and the IC50 amounted to 895 nM. Moreover, at human SGLT2, the inhibition at 0.3 µM came out at 52.8% and the 50% inhibitory concentration (IC50) worked out at 26.3 nM.

For `COc1cc(O)c([C@@H]2O[C@H](CO)C(F)(F)[C@H](O)[C@H]2O)cc1Cc1cc2ccccc2s1` [Compound 31, (2S,3R,4R,6R)-2-[5-(benzothiophen-2-ylmethyl)-2-hydroxy-4-methoxy-phenyl]-5,5-difluoro-6-(hydroxymethyl)tetrahydropyran-3,4-diol], the values for the IC50 against human SGLT1 and against human SGLT2 were 165 nM and 24.1 nM, respectively.
